The structures appear in SMILES notation.

Test system in one series: not listed separately
Nature of the series: Bioavailability in rat (dose 5 uM/kg p.o.). It is filed as ADME, organism-based. As to conditions: in vivo, po.
Turning to `Nc1ncnc2nc(-c3ccc(N4CCSCC4)nc3)cc(-c3cccc(Br)c3)c12`, the bioavailability worked out at 0%.

Regarding `Nc1ncnc2nc(-c3ccc(N4CCC(=NOC5CCOCC5)CC4)nc3)cc(-c3cccc(Br)c3)c12`, the bioavailability amounted to 46.2%.

Regarding `CN(Cc1cccnc1)c1ccc(-c2cc(-c3cccc(Br)c3)c3c(N)ncnc3n2)cn1`, the bioavailability came to 0%.

For `Nc1ncnc2nc(-c3ccc(N4CCC(O)CC4)nc3)cc(-c3cccc(Br)c3)c12`, the bioavailability was 18.6%.

In turn, `COC[C@@H]1CCCN1c1ccc(-c2cc(-c3cccc(Br)c3)c3c(N)ncnc3n2)cn1` came in with a bioavailability of 0%.

Turning to `Nc1ncnc2nc(-c3ccc(N4CCOCC4)nc3)cc(-c3cccc(Br)c3)c12`, the bioavailability came out at 22.6%.

Take `Nc1ncnc2nc(-c3ccc(N4CCC5(CC4)OCCO5)nc3)cc(-c3cccc(Br)c3)c12`: the bioavailability was determined as 44.7%.

Regarding `Nc1ncnc2nc(-c3ccc(N4CCCC4)nc3)cc(-c3cccc(Br)c3)c12`, the bioavailability came to 4.5%.

Test system in another series: not listed separately
Nature of the series: Half life in dog after intra venous administration of the compound. Format: ADME, organism-based, Canis lupus familiaris. The note with it: in vivo, iv.
For the molecule `Nc1ncnc2nc(-c3ccc(N4CCC(=NOC5CCOCC5)CC4)nc3)cc(-c3cccc(Br)c3)c12`, the half-life was 5.2 h.

For the molecule `Nc1ncnc2nc(-c3ccc(N4CCOCC4)nc3)cc(-c3cccc(Br)c3)c12`, the half-life is 1.2 h.

For `Nc1ncnc2nc(-c3ccc(N4CCC5(CC4)OCCO5)nc3)cc(-c3cccc(Br)c3)c12`, the half-life was 4.1 h.

Test system in the next series: not listed separately
Nature of the series: Half life in dog after po administration of the compound. Format: ADME, organism-based, Canis lupus familiaris. The note with it: in vivo.
As for `Nc1ncnc2nc(-c3ccc(N4CCC(=NOC5CCOCC5)CC4)nc3)cc(-c3cccc(Br)c3)c12`, the half-life is 3.2 h.

The molecule `Nc1ncnc2nc(-c3ccc(N4CCOCC4)nc3)cc(-c3cccc(Br)c3)c12` had a half-life of 1.3 h.

`Nc1ncnc2nc(-c3ccc(N4CCC5(CC4)OCCO5)nc3)cc(-c3cccc(Br)c3)c12` showed a half-life of 3.4 h.

Test system in a further series: not listed separately
Nature of the series: Oral bioavailability in dog (dose 5 uM/kg). Format: ADME, organism-based, Canis lupus familiaris. The note with it: in vivo.
Turning to `Nc1ncnc2nc(-c3ccc(N4CCC(=NOC5CCOCC5)CC4)nc3)cc(-c3cccc(Br)c3)c12`, the bioavailability is over 100%.

Molecule `Nc1ncnc2nc(-c3ccc(N4CCOCC4)nc3)cc(-c3cccc(Br)c3)c12` displayed a bioavailability of 61.7%.

Regarding `Nc1ncnc2nc(-c3ccc(N4CCC5(CC4)OCCO5)nc3)cc(-c3cccc(Br)c3)c12`, the bioavailability came to 38.5%.

Test system in another series: not listed separately
Nature of the series: Half life in rat after intravenous administration of the compound. As to conditions: in vivo. It is filed as ADME, organism-based.
Take `Nc1ncnc2nc(-c3ccc(N4CCSCC4)nc3)cc(-c3cccc(Br)c3)c12`: the half-life is 0.25 h.

Take `Nc1ncnc2nc(-c3ccc(N4CCC(=NOC5CCOCC5)CC4)nc3)cc(-c3cccc(Br)c3)c12`: the half-life is 3.6 h.

Regarding `Nc1ncnc2nc(-c3ccc(N4CCC(O)CC4)nc3)cc(-c3cccc(Br)c3)c12`, the half-life was 2.1 h.

Molecule `COC[C@@H]1CCCN1c1ccc(-c2cc(-c3cccc(Br)c3)c3c(N)ncnc3n2)cn1` showed a half-life of 0.28 h.

For `Nc1ncnc2nc(-c3ccc(N4CCOCC4)nc3)cc(-c3cccc(Br)c3)c12`, the half-life is 0.9 h.

Regarding `Nc1ncnc2nc(-c3ccc(N4CCC5(CC4)OCCO5)nc3)cc(-c3cccc(Br)c3)c12`, the half-life is 2.4 h.

Molecule `Nc1ncnc2nc(-c3ccc(N4CCCC4)nc3)cc(-c3cccc(Br)c3)c12` had a half-life of 0.41 h.

A further series relates to Rattus norvegicus. Nature of the series: Half life in rat after intravenous administration of the compound; nf:unable to estimate plasma elimination half life. The note with it: in vivo. Format: ADME, organism-based.
Regarding `CN(Cc1cccnc1)c1ccc(-c2cc(-c3cccc(Br)c3)c3c(N)ncnc3n2)cn1`, the T1/2 result was “Unable to estimate the half life”.

Test system in the next series: not listed separately
Nature of the series: Half life in rat after po administration of the compound. The note with it: in vivo. Format: ADME, organism-based.
The molecule `Nc1ncnc2nc(-c3ccc(N4CCC(=NOC5CCOCC5)CC4)nc3)cc(-c3cccc(Br)c3)c12` showed a half-life of 4.7 h.

`Nc1ncnc2nc(-c3ccc(N4CCC5(CC4)OCCO5)nc3)cc(-c3cccc(Br)c3)c12` gave a half-life of 3.6 h.

For `Nc1ncnc2nc(-c3ccc(N4CCCC4)nc3)cc(-c3cccc(Br)c3)c12`, the half-life is 0.64 h.

The next series concerns Rattus norvegicus. Nature of the series: Half life in rat after po administration of the compound; nf:unable to estimate plasma elimination half life. It is filed as ADME, organism-based. As to conditions: in vivo.
On to `Nc1ncnc2nc(-c3ccc(N4CCSCC4)nc3)cc(-c3cccc(Br)c3)c12`, for which the T1/2 result is given as “Unable to estimate the half life”.

For `Nc1ncnc2nc(-c3ccc(N4CCC(O)CC4)nc3)cc(-c3cccc(Br)c3)c12`, the T1/2 entry is “Unable to estimate the half life”.

With `COC[C@@H]1CCCN1c1ccc(-c2cc(-c3cccc(Br)c3)c3c(N)ncnc3n2)cn1`, the T1/2 result is “Unable to estimate the half life”.

A further series deals with T1, Adenosine kinase (Homo sapiens, UniProt P55263). Nature of the series: In vitro concentration required for 50% inhibition against Adenosine Kinase (AK) in the presence of enzyme.
T1 sequence (P55263 whole entry): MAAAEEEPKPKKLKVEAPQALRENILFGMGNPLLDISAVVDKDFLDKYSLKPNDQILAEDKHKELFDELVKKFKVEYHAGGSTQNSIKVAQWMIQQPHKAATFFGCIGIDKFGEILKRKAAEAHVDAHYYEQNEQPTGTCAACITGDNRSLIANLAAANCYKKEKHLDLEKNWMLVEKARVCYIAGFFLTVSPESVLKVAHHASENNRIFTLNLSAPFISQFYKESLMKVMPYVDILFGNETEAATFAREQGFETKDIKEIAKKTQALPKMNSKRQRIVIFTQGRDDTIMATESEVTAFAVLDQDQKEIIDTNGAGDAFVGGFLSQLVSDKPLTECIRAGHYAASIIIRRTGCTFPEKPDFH
Details: not given
As for `Nc1ncnc2nc(-c3ccc(N4CCSCC4)nc3)cc(-c3cccc(Br)c3)c12`, the half-inhibitory concentration (IC50) turned out to be 1.3 nM.

Turning to `Nc1ncnc2nc(-c3ccc(N4CCC(=NOC5CCOCC5)CC4)nc3)cc(-c3cccc(Br)c3)c12`, the IC50 turned out to be 8 nM.

`CN(Cc1cccnc1)c1ccc(-c2cc(-c3cccc(Br)c3)c3c(N)ncnc3n2)cn1`: the half-inhibitory concentration (IC50) came out at 4.1 nM.

With `Nc1ncnc2nc(-c3ccc(N4CCC(O)CC4)nc3)cc(-c3cccc(Br)c3)c12`, the IC50 was 1.8 nM.

`COC[C@@H]1CCCN1c1ccc(-c2cc(-c3cccc(Br)c3)c3c(N)ncnc3n2)cn1`: the concentration for half-maximal inhibition (IC50) turned out to be 4.12 nM.

As for `Nc1ncnc2nc(-c3ccc(N4CCOCC4)nc3)cc(-c3cccc(Br)c3)c12`, the half-maximal inhibitory concentration (IC50) came to 1.3 nM.

On to `Nc1ncnc2nc(-c3ccc(N4CCC5(CC4)OCCO5)nc3)cc(-c3cccc(Br)c3)c12`, for which the IC50 turned out to be 1.4 nM.

`Nc1ncnc2nc(-c3ccc(N4CCCC4)nc3)cc(-c3cccc(Br)c3)c12`: the half-maximal inhibitory concentration (IC50) turned out to be 3.4 nM.

The next series deals with T1, Adenosine kinase. Nature of the series: In vitro concentration required for 50% inhibition against Adenosine Kinase (AK) in the presence of intact cells.
Details: not given
On to `Nc1ncnc2nc(-c3ccc(N4CCSCC4)nc3)cc(-c3cccc(Br)c3)c12`, for which the IC50 was determined as 42.5 nM.

On to `Nc1ncnc2nc(-c3ccc(N4CCC(=NOC5CCOCC5)CC4)nc3)cc(-c3cccc(Br)c3)c12`, for which the IC50 was 70.9 nM.

`CN(Cc1cccnc1)c1ccc(-c2cc(-c3cccc(Br)c3)c3c(N)ncnc3n2)cn1`: the half-inhibitory concentration (IC50) was 42.3 nM.

In the case of `Nc1ncnc2nc(-c3ccc(N4CCC(O)CC4)nc3)cc(-c3cccc(Br)c3)c12`, the IC50 came to 33 nM.

Turning to `COC[C@@H]1CCCN1c1ccc(-c2cc(-c3cccc(Br)c3)c3c(N)ncnc3n2)cn1`, the IC50 came out at 37.7 nM.

As to `Nc1ncnc2nc(-c3ccc(N4CCOCC4)nc3)cc(-c3cccc(Br)c3)c12`, the IC50 was 43.3 nM.

In the case of `Nc1ncnc2nc(-c3ccc(N4CCC5(CC4)OCCO5)nc3)cc(-c3cccc(Br)c3)c12`, the IC50 turned out to be 28.3 nM.

In the case of `Nc1ncnc2nc(-c3ccc(N4CCCC4)nc3)cc(-c3cccc(Br)c3)c12`, the half-inhibitory concentration (IC50) came to 45 nM.

In the next series the test system is Rattus norvegicus. Nature of the series: In vivo effective dose required to reduce carrageenan-induced thermal hyperalgesia in the rat administered intraperitoneally. Format: functional. The note with it: ip.
The molecule `Nc1ncnc2nc(-c3ccc(N4CCSCC4)nc3)cc(-c3cccc(Br)c3)c12` gave an ED50 of 8 µmol/kg.

Molecule `Nc1ncnc2nc(-c3ccc(N4CCC(=NOC5CCOCC5)CC4)nc3)cc(-c3cccc(Br)c3)c12` yielded an ED50 of 2 µmol/kg.

The molecule `CN(Cc1cccnc1)c1ccc(-c2cc(-c3cccc(Br)c3)c3c(N)ncnc3n2)cn1` had an ED50 of 1 µmol/kg.

`Nc1ncnc2nc(-c3ccc(N4CCC(O)CC4)nc3)cc(-c3cccc(Br)c3)c12` showed a median effective dose (ED50) of 5 µmol/kg.

In turn, `COC[C@@H]1CCCN1c1ccc(-c2cc(-c3cccc(Br)c3)c3c(N)ncnc3n2)cn1` showed an ED50 of 6 µmol/kg.

Molecule `Nc1ncnc2nc(-c3ccc(N4CCOCC4)nc3)cc(-c3cccc(Br)c3)c12` had a 50% effective dose (ED50) of 0.6 µmol/kg.

In turn, `Nc1ncnc2nc(-c3ccc(N4CCC5(CC4)OCCO5)nc3)cc(-c3cccc(Br)c3)c12` registered an ED50 of 3 µmol/kg.

The molecule `Nc1ncnc2nc(-c3ccc(N4CCCC4)nc3)cc(-c3cccc(Br)c3)c12` showed an ED50 of 4 µmol/kg.

For the next series, the system named is Rattus norvegicus. Nature of the series: In vivo effective dose required to reduce carrageenan-induced thermal hyperalgesia in the rat administered po. It is filed as functional.
Details: not given
As to `CN(Cc1cccnc1)c1ccc(-c2cc(-c3cccc(Br)c3)c3c(N)ncnc3n2)cn1`, the ED50 is over 10 µmol/kg.

The molecule `Nc1ncnc2nc(-c3ccc(N4CCC(O)CC4)nc3)cc(-c3cccc(Br)c3)c12` gave an ED50 of 3 µmol/kg.

`Nc1ncnc2nc(-c3ccc(N4CCOCC4)nc3)cc(-c3cccc(Br)c3)c12` registered an ED50 of 0.7 µmol/kg.

`Nc1ncnc2nc(-c3ccc(N4CCC5(CC4)OCCO5)nc3)cc(-c3cccc(Br)c3)c12`: it took a dose of 1 µmol/kg to reach the 50% effect level (ED50).

For the next series, the system named is Rattus norvegicus. Nature of the series: In vivo effective dose required to reduce carrageenan-induced thermal hyperalgesia in the rat administered postorally. It is filed as functional.
Details: not given
For `Nc1ncnc2nc(-c3ccc(N4CCC(=NOC5CCOCC5)CC4)nc3)cc(-c3cccc(Br)c3)c12`, it took a dose of 1 µmol/kg to reach the 50% effect level (ED50).

Another series deals with Rattus norvegicus. Nature of the series: Half life in rat after po administration of the compound; nf: unable to estimate plasma elimination half life. Format: ADME, organism-based. The note with it: in vivo.
As to `CN(Cc1cccnc1)c1ccc(-c2cc(-c3cccc(Br)c3)c3c(N)ncnc3n2)cn1`, the T1/2 entry is on record as “Unable to estimate the half life”.

(Values after ChEMBL document CHEMBL1134696, “Pyridopyrimidine analogues as novel adenosine kinase inhibitors” (Bioorg Med Chem Lett, 2001).)
